Laboratory results reported in patent publication US7772260B2, “Imidazo[2,1-b]-1,3,4-thiadiazole sulfonamides” (Aegera Therapeutics Inc., priority 2001, dated 2010).
“Also recorded” adds a separate entry of the source.

Tests used:
[1] = test system: cortical neurons; assay: Neuroprotection of cortical neurons in the presence of beta-amyloid; type: cell-based, Sprague Dawley rats; settings: 10 uM compound, 10 uM 25-35 amyloid beta peptide, 48 hour
Method: Primary neuronal/glial cortical cultures were established from postnatal day 1 Sprague Dawley rats. Cerbral cortices were isolated and dissociated with 0.25% trypsin for 20 minutes at 37 degrees. The tissue was then triturated in PBS containing 0.1% bovine serum albumin and 0.2 mg/ml DNAse. Cells were plated in poly D-lysine coated 96 well plates at a density of 1e6 cells per mL. Cultures were maintained at 37 degrees in 5% C02/95% air for 2 weeks in Neurobasal (Gibco) supplemented with B27, glutamine, and penicillin/streptomycin. 5ng/mL AraC was added after 48 hours. After 2 weeks cells were exposed to 10 uM 25-35 amyloid beta peptide with and without 10 uM compound 76. After 2 days of treatment apoptotic cells were detected with Cy3-conjugated annexin V (Sigma).

[2] = test system: sciatic nerve; assay: Sciatic nerve crush injury model; type: in vivo, Sprague Dawley rats; settings: for functional recovery after sciatic nerve crush: 1 and 10 mg/kg
Source text: The sciatic nerve crush model is a representative model of axonal repair and regeneration. The sciatic nerve is physically crushed with forceps at the mid-thigh; only the right leg is injured, the left leg serving as a control. The axons die from the crush point to their point of innervation. Functional loss of the axons is rapidly observed as the animals drag their right leg and the toes of the right leg no longer spread. Recovery is observed in approximately 28 days as the animals regain use of their right leg. More quantitative measurements of recovery include toe spread measurements between the digits 1 and 5 and digits 2 and 4, gait analysis and electrical conductivity from the toes to the injury site (see Example 161). Male Sprague Dawley rats were anaesthetized (halothane and buprenorphine) and the right hind leg was blunt dissected to expose the sciatic nerve at mid-thigh. The nerve was crushed twice for a total of 30 seconds using No.7 Dumont jeweller's forceps. The incision is sutured and the animals are allowed to recover for 28 days. Functional recovery was measured by gait, nerve conductance and toe spread measurements between digits 1 and 5 and digits 2 and 4.

[3] = target: CA II (Homo sapiens, UniProt P00918); assay: CA II inhibition; type: biochemical; settings: read-out: IC(50), CA II inhibition
Method: CA II inhabition was measured using the protocol described by Pocker, Y.'Stone, J. Biochemistry 1967, 6, 668.

[4] = test system: SCG neurons; assay: Protection of SCG neurons from anti-NGF killing; type: cell-based, Sprague Dawley rats; settings: Rattus norvegicus, Neuron; anti-NGF antibody, serum and NGF free 48 hours, Alamar Blue; +/−1 uM; read-out: IC(50), rescue from anti-NGF killing of SCG neurons
Method: Neurotrophins are critical to the growth, development, and survival of small fiber neurons of the PNS. SCG neurons are neurons of the PNS that undergo apoptosis upon NGF withdrawal. In a typical experiment SCG neurons are cultured in the presence of NGF, which induces survival and neurite out-growth. After 5 days the NGF is removed by either the addition of anti-NGF polyclonal antibody (Sigma) or by repeated washings (4 times) with NGF free media, resulting in the apoptosis of up to 90% of the neurons after 48 hours, as measured by MTS staining.
After 4 days the cells were treated with anti-NGF antibody (Sigma). At this time compound was added and the cells were maintained serum and NGF free for 48 hours, at which time viability was assessed using Alamar Blue (Medicorp) staining.

[5] = test system: SCG neurons; assay: cells; type: cell-based, Sprague Dawley rats; settings: Rattus norvegicus, Neuron; Taxol™ (50 ng/mL), viability 48 hours later, MTS; read-out: IC(50), protection of SCG neurons from Taxol killing
[6] = test system: SCG neurons; assay: In vitro protection of SCG neurons from vincristine killing; type: cell-based, Sprague Dawley rats; settings: vincristine 100 ng/mL
Source text: Similarly, vincristine and vinblastine are commonly used anti-tumour agents whose mode of action involve tubulin binding.

SMILES | annexin V positive (apoptotic) cells [1] | functional recovery after sciatic nerve crush [2] | recovery in toe spread area (inner toe spread) ([2]; versus vehicle control) | IC50 [3] | IC50 [4] | IC50 [5] | apoptosis of cultured SCG neurons [6]
COc1cccc(-c2ccc(-c3cn4nc(S(N)(=O)=O)sc4n3)cc2)c1 [Compound 76, 6-(4-(3-methoxyphenyl)phenyl)imidazo[2,1-b]-1,3,4-thiadiazole-2-sulfonamide] | prevents the occurrence of annex in V stained cells; also recorded: prevented the appearance of annexinV positive cells | improved recovery | induced increased recovery | 0.526 µM | 5 µM | 2 µM | 
NS(=O)(=O)c1nn2cc(-c3cc4ccccc4o3)nc2s1 [Compound 111, 6-(Benzo[b]furan-2-yl)imidazo[2,1-b]-1,3,4-thiadiazole-2-sulfonamide] |  | improved recovery |  | 53.2 µM | 7 µM | 2 µM | 
CC[C@]1(O)C[C@H]2CN(CCc3c([nH]c4ccccc34)[C@@](C(=O)OC)(c3cc4c(cc3OC)N(C=O)[C@H]3[C@@](O)(C(=O)OC)[C@H](OC(C)=O)[C@]5(CC)C=CCN6CC[C@]43[C@@H]65)C2)C1 [vincristine, reference compound] |  |  |  |  |  |  | ≥ 80%
